Experimental data from patent publication US20180305332A1, “Bispiperidinyl Derivatives as Liver X Receptor Beta Agonists, Compositions, and Their Use” (Merck Sharp & Dohme Corp., priority 2015, published 2018).

Tests used:
[1] = target: T1, GST tagged LXRbeta LBD (ligand binding domain) (Homo sapiens, UniProt P55055); experiment: LanthaScreen TR-FRET Liver X Receptor Coactivator Assay, LXR beta-LBD; assay type: biochemical; conditions: relative to reference T0901317; for EC50: Inflection Point (potency), co-activator recruitment, read-out: LXR beta IP; for Emax / LXR beta act @ max dose (%): activity at max dose (efficacy); for Emax: read-out: LXR beta act @ max dose (%)
T1 construct: purchased Invitrogen pv4658.pps
T1 sequence (P55055 222-460 limits assumed): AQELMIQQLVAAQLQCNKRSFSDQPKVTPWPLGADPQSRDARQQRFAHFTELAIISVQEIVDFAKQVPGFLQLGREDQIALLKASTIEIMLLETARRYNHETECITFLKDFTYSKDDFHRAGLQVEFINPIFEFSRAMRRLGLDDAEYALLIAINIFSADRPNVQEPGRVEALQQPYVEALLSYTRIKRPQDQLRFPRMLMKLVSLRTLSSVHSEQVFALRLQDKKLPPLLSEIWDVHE
Experimental: (§1) Potency (Inflection Point, IP) and efficacy (Emax) are evaluated via compound-induced co-activator recruitment to glutathione-S-transferase (GST) tagged LXRbeta and LXRalpha LBD (ligand binding domain) proteins in relation to reference dual agonist compound T0901317 (N-(2,2,2-Trifluoroethyl)-N-[4-[2,2,2-trifluoro-1-hydroxy-1-(trifluoromethyl)ethyl] phenyl]benzenesulfonamide) using the LanthaScreen™ TR-FRET Liver X Receptor Coactivator Assays according to manufacturer's instructions (Invitrogen catalog number pv4658.pps and pv4655). While running the LanthaScreen™ TR-FRET Liver X Receptor Coactivator Assay, LXR alpha-LBD or LXR beta-LBD was added to ligand test compounds followed by addition of a mixture of a fluorescein-labelled coactivator peptide and terbium-conjugated anti-GST antibody. After an incubation period at room temperature, TR-FRET (time-resolved fluorescence resonance energy transfer) was measured using a filter-based instrument capable of TR-FRET, e.g. PerkinElmer Envision.

[2] = target: T2, GST tagged LXRalpha LBD (ligand binding domain) (Homo sapiens, UniProt Q13133); experiment: LanthaScreen TR-FRET Liver X Receptor Coactivator Assay, LXR alpha-LBD; assay type: biochemical; conditions: relative to reference T0901317; for EC50 / LXR alpha IP (nM): Inflection Point (potency), co-activator recruitment; for EC50: read-out: LXR alpha IP; for Emax / LXR alpha act @ max dose (%): activity at max dose (efficacy); for Emax: read-out: LXR alpha act @ max dose (%)
T2 construct: purchased Invitrogen pv4655
T2 sequence (Q13133 209-447 limits assumed): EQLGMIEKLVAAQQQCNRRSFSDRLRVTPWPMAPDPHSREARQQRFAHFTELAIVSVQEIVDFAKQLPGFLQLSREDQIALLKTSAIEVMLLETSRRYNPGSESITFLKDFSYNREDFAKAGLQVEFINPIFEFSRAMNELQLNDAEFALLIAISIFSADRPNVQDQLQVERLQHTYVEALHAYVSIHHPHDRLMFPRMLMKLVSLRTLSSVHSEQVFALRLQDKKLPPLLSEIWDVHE
Experimental: as §1

| EC50 [1] [nM] | Emax [1] [%] | EC50 [2] [nM] | Emax [2] [%] | LXR alpha IP (nM) [2] | LXR beta act @ max dose (%) [1] [%] | LXR alpha act @ max dose (%) [2] [%] | Structure (SMILES) |
| --- | --- | --- | --- | --- | --- | --- | --- |
| 193 | 99 | 2840 | 31 | – | – | – | Cc1ccc(C(C)(C)C(=O)N2CCC(C3CCN(c4ccc(C(=O)N(C)C)c(Cl)c4)CC3)CC2)cc1 [Example A-92, 2-chloro-N,N-dimethyl-4-{1′-[2-methyl-2-(4-methylphenyl)propanoyl]-4,4′-bipiperidin-1-yl}benzamide] |
| 7 | 107 | 148 | 58 | – | – | – | CN(C)C(=O)c1ccc(N2CCC(C3CCN(C(=O)C4(c5c(F)cccc5Cl)CCCC4)CC3)CC2)cc1Cl [Example A-82, 2-chloro-4-(1′-{[1-(2-chloro-6-fluorophenyl)cyclopentyl]carbonyl}-4,4′-bipiperidin-1-yl)-N,N-dimethylbenzamide] |
| 52 | 86 | 618 | 31 | – | – | – | CN(C)C(=O)c1ccc(N2CCC(C3CCN(C(=O)C4(c5ccc(Cl)cc5Cl)CCC4)CC3)CC2)cc1Cl [Example A-77, 2-chloro-4-(1′-{[1-(2,4-dichlorophenyl)cyclobutyl]carbonyl}-4,4′-bipiperidin-1-yl)-N,N-dimethylbenzamide] |
| 216 | 70 | – | 5 | NO IP | – | – | O=C(c1ccc(N2CCC(C3CCN(C(=O)[C@](O)(c4ccccc4)C(F)(F)F)CC3)CC2)cc1Cl)N1CCCC2(CC2)C1 [Example E-37, (2R)-3-{1′-[4-(5-azaspiro[2.5]oct-5-ylcarbonyl)-3-chlorophenyl]-4,4′-bipiperidin-1-yl}-1,1,1-trifluoro-3-oxo-2-phenylpropan-2-ol] |
| 57 | 123 | 1710 | 47 | – | – | – | CC(C)C(O)(C(=O)N1CCC(C2CCN(c3ccc(C(=O)N(C)C)c(Cl)n3)CC2)CC1)C(C)C [Example B-2, 2-chloro-6-{1′-[2-hydroxy-3-methyl-2-(1-methylethyl)butanoyl]-4,4′-bipiperidin-1-yl}-N,N-dimethylpyridine-3-carboxamide] |
| 147 | 112 | 2090 | 42 | – | – | – | CN(C)C(=O)c1ccc(N2CCC(C3CCN(C(=O)C(C)(C)c4cccc(F)c4)CC3)CC2)cc1Cl [Example A-91, 2-chloro-4-{1′-[2-(3-fluorophenyl)-2-methylpropanoyl]-4,4′-bipiperidin-1-yl}-N,N-dimethylbenzamide] |
| 210 | 81 | – | 15 | NO IP | – | – | COc1cccc(C2(C(=O)N3CCC(C4CCN(c5ccc(C(=O)N(C)C)c(Cl)c5)CC4)CC3)CCCC2)c1 [Example A-78, 2-chloro-4-(1′-{[1-(3-methoxyphenyl)cyclopentyl]carbonyl}-4,4′-bipiperidin-1-yl)-N,N-dimethylbenzamide] |
| 450 | 83 | – | 28 | NO IP | – | – | O=C(c1ccc(N2CCC(C3CCN(C(=O)[C@](O)(c4ccccc4)C(F)(F)F)CC3)CC2)cc1Cl)N1CC(F)(F)C1 [Example E-34, (2R)-3-(1′-{3-chloro-4-[(3,3-difluoroazetidin-1-yl)carbonyl]phenyl}-4,4′-bipiperidin-1-yl)-1,1,1-trifluoro-3-oxo-2-phenylpropan-2-ol] |
| 26 | 123 | 493 | 48 | – | – | – | CC(C)C(O)(C(=O)N1CCC(C2CCN(c3ccc(C(=O)N(C)C)c(Cl)n3)CC2)CC1)C(F)(F)F (stereo not drawn) [Example B-4, 2-chloro-6-{1′-[2-hydroxy-3-methyl-2-(trifluoromethyl)butanoyl]-4,4′-bipiperidin-1-yl}-N,N-dimethylpyridine-3-carboxamide] |
| 418 | 86 | 1520 | 28 | – | – | – | CC(C)S(=O)(=O)c1ccc(N2CCC(C3CCN(C(=O)[C@](O)(c4ccccc4)C(F)(F)F)CC3)CC2)cc1Cl [Example D-5, (2R)-3-(1′-{3-chloro-4-[(1-methylethyl)sulfonyl]phenyl}-4,4′-bipiperidin-1-yl)-1,1,1-trifluoro-3-oxo-2-phenylpropan-2-ol] |
| 62 | – | 1400 | – | – | 93 | 56 | CN(C)C(=O)c1ccc(N2CCC(C3CCN(C(=O)C(O)(C(C)(C)C)C(F)(F)F)CC3)CC2)cc1Cl (single isomer, unassigned) [Example A-7, 2-Chloro-4-(1′-(2-hydroxy-3,3-dimethyl-2-(trifluoromethyl)butanoyl)-[4,4′-bipiperidin]-1-yl)-N,N-dimethylbenzamide] |
| 364 | 57 | 2460 | 19 | – | – | – | COC1CN(C(=O)c2ccc(N3CCC(C4CCN(C(=O)[C@](O)(c5ccccc5)C(F)(F)F)CC4)CC3)cc2Cl)C1 [Example E-35, (2R)-3-(1′-{3-chloro-4-[(3-methoxyazetidin-1-yl)carbonyl]phenyl}-4,4′-bipiperidin-1-yl)-1,1,1-trifluoro-3-oxo-2-phenylpropan-2-ol] |
| 22 | 131 | 782 | 74 | – | – | – | CN(C)C(=O)c1ccc(N2CCC(C3CCN(C(=O)C(F)(F)c4ccccc4Cl)CC3)CC2)cc1Cl [Example A-62, 2-chloro-4-{1′-[(2-chlorophenyl)(difluoro)acetyl]-4,4′-bipiperidin-1-yl}-N,N-dimethylbenzamide] |
| 105 | 130 | 760 | 33 | – | – | – | O=C(c1ccc(N2CCC(C3CCN(C(=O)[C@](O)(c4ccccc4)C(F)(F)C(F)(F)F)CC3)CC2)cc1Cl)N1CCCC1 [Example E-17] |
| 496 | 54 | – | 0 | NO IP | – | – | CN(C)C(=O)c1ccc(N2CCC(C3CCN(S(=O)(=O)c4ccccc4)CC3)CC2)cc1Cl [Example A-99, 2-chloro-N,N-dimethyl-4-[1′-(phenylsulfonyl)-4,4′-bipiperidin-1-yl]benzamide] |
| 112 | 103 | 967 | 45 | – | – | – | CC(C)C(O)(C(=O)N1CCC(C2CCN(c3ccc(C(=O)N(C)C)c(Cl)c3)CC2)CC1)C(F)(F)C(F)(F)F (stereo not drawn) [Example A-26, 2-chloro-N,N-dimethyl-4-{1′-[3,3,4,4,4-pentafluoro-2-hydroxy-2-(1-methylethyl)butanoyl]-4,4′-bipiperidin-1-yl}benzamide] |
| 36 | 114 | 1530 | 38 | – | – | – | CN(C)C(=O)c1ccc(N2CCC(C3CCN(C(=O)C4(c5ccccc5)CCC4)CC3)CC2)cc1Cl [Example A-14, 2-chloro-N,N-dimethyl-4-{1′-[(1-phenylcyclobutyl)carbonyl]-4,4′-bipiperidin-1-yl}benzamide] |
| 53 | 58 | – | 0 | NO IP | – | – | CC1CCC(C)N1C(=O)c1ccc(N2CCC(C3CCN(C(=O)[C@](O)(c4ccccc4)C(F)(F)F)CC3)CC2)cc1Cl (stereo partly drawn) [Example E-27, (2R)-3-(1′-{3-chloro-4-[(2,5-dimethylpyrrolidin-1-yl)carbonyl]phenyl}-4,4′-bipiperidin-1-yl)-1,1,1-trifluoro-3-oxo-2-phenylpropan-2-ol] |
| 243 | 95 | 3000 | 37 | – | – | – | CN(C)C(=O)c1ccc(N2CCC(C3CCN(C(=O)c4ccccc4C(F)(F)F)CC3)CC2)cc1Cl [Example A-21, 2-chloro-N,N-dimethyl-4-(1′-{[2-(trifluoromethyl)phenyl]carbonyl}-4,4′-bipiperidin-1-yl)benzamide] |
| 102 | – | 1220 | – | – | 94 | 36 | CC(C)CC(O)(C(=O)N1CCC(C2CCN(c3ccc(C(=O)N(C)C)c(Cl)c3)CC2)CC1)C(F)(F)F (stereo not drawn) [Example A-89, 2-chloro-4-{1′-[2-hydroxy-4-methyl-2-(trifluoromethyl)pentanoyl]-4,4′-bipiperidin-1-yl}-N,N-dimethylbenzamide] |
| 111 | 123 | 1070 | 56 | – | – | – | CNC(=O)c1ccc(N2CCC(C3CCN(C(=O)C(O)(C(C)C)C(F)(F)F)CC3)CC2)cc1Cl (stereo not drawn) [Example E-5, 2-chloro-4-{1′-[2-hydroxy-3-methyl-2-(trifluoromethyl)butanoyl]-4,4′-bipiperidin-1-yl}-N-methylbenzamide] |
